{"source": "patent US5256820A", "about": "“1-alkyl-2-acyl-1,2-disulfonylhydrazines” (Yale University, priority 1991, dated 1993)", "key": {"[1]": {"test_system": "GST (glutathione-S-transferase), equine liver enzyme", "assay": "GST-catalyzed GSH activation of prodrug", "assay_type": "biochemical", "settings": "13.5 units/ml equine liver GST", "text": "Therefore, tumors resistant to conventional chloroethylating agents because of the protective effect conferred by high levels of intracellular thiols, may be more sensitive to 2-acyl-1,2-bis(methylsulfonyl)-1-methyl (or 2-chloroethyl)hydrazines. […] Although elevation of GST levels has been associated with increased resistance to a variety of alkylating agents, such a change is expected to increase sensitivity to the thiol-activated prodrugs."}, "[2]": {"assay": "Prodrug activation by GSH, methanol generation determined using alcohol oxidase", "method": "Our belief is confirmed by the following experiment in which we incubated a solution of 2-benzoyl-1,2-bis(methylsulfonyl)-1-methylhydrazine (R=C6 H5) in phosphate buffer (pH 7.4) at 37° C. in the presence and absence of GSH. The amount of methanol generated in 10 min, determined using alcohol oxidase by methodology described by Penketh et al. (1990) 33:730-732, was used as a measure of activation of the prodrug. In the presence of 1 mM GSH, the amount of methanol generated increased approximately 10-fold, relative to that occurring in phosphate buffer alone. […] In the case of the 1-(2-chloroethyl) derivative (the compound of Example 6), 22although precise quantitation was difficult due to the limitations of the assay, the compound of Example 6 gave a 6- to 7-fold greater amount of alkylated product when reacted with the nucleophile 4-(4'-nitrobenyl)pyridine in the presence of 5 mM GSH for 30 min at 37° C. than in its absence."}}, "data": [{"smiles": "CN(N(C(=O)c1ccccc1)S(C)(=O)=O)S(C)(=O)=O", "note": "[2-benzoyl-1,2-bis(methylsulfonyl)-1-methylhydrazine]", "values": [{"measurement": "effect of GST on GSH activation rate (in words)", "setting": "[1]", "value": "doubling the activation rate"}, {"measurement": "increase in amount of methanol generated relative to phosphate buffer alone", "setting": "[2]; 1 mM GSH, 10 min, phosphate buffer pH 7.4, 37° C.", "value": "approximately 10 fold"}, {"measurement": "dependence of rate of activation on GSH concentration (in words)", "setting": "[2]; GSH", "value": "directly proportional to the GSH concentration"}]}]}
